Assay results taken from ChEMBL document CHEMBL1799928, “New 2-thioether-substituted apomorphines as potent and selective dopamine D₂ receptor agonists” (Eur J Med Chem, 2011).
pEC50, pKi: −log10 of the molar value.

Experiments:
D(2) dopamine receptor [1] = biological target: T1, D(2) dopamine receptor (Rattus norvegicus, UniProt P61169); assay: Displacement of [3H]raclopride from rat D2 dopamine receptor expressed in CHOK1 cells after 90 mins by liquid scintillation counter scintillation counter; format: cell-based, CHO-K1
D(2) dopamine receptor [2] = biological target: T1, D(2) dopamine receptor; assay: Agonist activity at rat D2 dopamine receptor expressed in CHOK1 cells assessed as [35S]GTPgammaS binding after 90 mins by liquid scintillation counter; format: functional, cell-based, CHO-K1
D(1A) dopamine receptor = D(1A) dopamine receptor (Homo sapiens, UniProt P21728); assay: Displacement of [3H]SCH23390 from human D1 dopamine receptor expressed in Ltk fibroblast cells after 60 mins by liquid scintillation counter; format: cell-based
[3] = Selectivity ratio of Ki for rat D2 dopamine receptor to Ki for human D1 dopamine receptor

D(1A) dopamine receptor, sequence (P21728 whole entry): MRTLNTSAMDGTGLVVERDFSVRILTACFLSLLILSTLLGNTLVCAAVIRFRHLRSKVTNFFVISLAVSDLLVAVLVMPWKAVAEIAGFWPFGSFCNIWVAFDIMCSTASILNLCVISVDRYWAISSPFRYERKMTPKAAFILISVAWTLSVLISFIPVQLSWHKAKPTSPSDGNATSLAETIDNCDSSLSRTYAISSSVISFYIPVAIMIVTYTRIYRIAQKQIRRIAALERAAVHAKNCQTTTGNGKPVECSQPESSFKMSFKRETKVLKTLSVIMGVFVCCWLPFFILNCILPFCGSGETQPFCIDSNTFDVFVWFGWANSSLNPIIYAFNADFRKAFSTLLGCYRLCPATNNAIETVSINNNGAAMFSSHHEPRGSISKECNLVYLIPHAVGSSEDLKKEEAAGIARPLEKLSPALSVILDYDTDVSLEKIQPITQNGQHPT
T1 sequence (P61169 whole entry): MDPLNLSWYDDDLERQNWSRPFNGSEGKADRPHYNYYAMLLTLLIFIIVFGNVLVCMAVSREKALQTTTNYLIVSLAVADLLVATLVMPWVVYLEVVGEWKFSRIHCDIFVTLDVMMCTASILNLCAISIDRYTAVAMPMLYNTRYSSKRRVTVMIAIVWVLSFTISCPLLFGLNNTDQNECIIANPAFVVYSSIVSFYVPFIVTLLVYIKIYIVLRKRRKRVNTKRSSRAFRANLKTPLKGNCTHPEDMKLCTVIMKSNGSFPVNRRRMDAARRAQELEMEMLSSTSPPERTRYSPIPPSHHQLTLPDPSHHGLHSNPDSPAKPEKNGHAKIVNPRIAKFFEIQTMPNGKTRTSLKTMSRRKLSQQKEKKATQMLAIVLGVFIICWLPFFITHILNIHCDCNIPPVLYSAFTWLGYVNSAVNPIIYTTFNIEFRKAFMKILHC

SMILES	pKi (D(2) dopamine receptor [1])	pEC50 (D(2) dopamine receptor [2])	pKi (D(1A) dopamine receptor)	Ratio Ki [3]
COC(=O)[C@@H](N)CSc1cc2c3c(c1)-c1c(ccc(O)c1O)C[C@H]3N(C)CC2	8.00	7.62	6.42	38
CN1CCc2cc(Sc3ccccc3)cc3c2[C@H]1Cc1ccc(O)c(O)c1-3	6.24	6.09	5.66	47
CN1CCc2cc(SC[C@@H](N)C(=O)O)cc3c2[C@H]1Cc1ccc(O)c(O)c1-3	–	–	6.85	–
CN1CCc2cc(SC[C@H](N)C(=O)O)cc3c2[C@H]1Cc1ccc(O)c(O)c1-3	–	–	5.38	–
CN1CCc2cc(SCCC(=O)O)cc3c2[C@H]1Cc1ccc(O)c(O)c1-3	6.40	6.83	6.82	0.4
CN1CCc2cc(SCCN)cc3c2[C@H]1Cc1ccc(O)c(O)c1-3	8.02	7.80	5.89	135
CN1CCc2c3c(cc4c2[C@H]1Cc1ccc(O)c(O)c1-4)SCCC3=O	6.38	6.42	6.85	0.3
